The source of these data is publication PMC11187126, “Structure and dynamics of the pyroglutamylated RF-amide peptide QRFP receptor GPR103” (Nature Communications, 2024).

Read-outs that look alike come from different tables or passages of the source. No end group written: not given here.

This test concerns the target T1, GPR103 V129^3.36A (Homo sapiens, UniProt Q96P65, V129A).
T1 construct: we used human full-length QRFPR-encoding plasmids; expressed in transfected cells; host or cells: HEK293 cells, pCAGGS vector
T1 sequence (Q96P65 1-431 V129A): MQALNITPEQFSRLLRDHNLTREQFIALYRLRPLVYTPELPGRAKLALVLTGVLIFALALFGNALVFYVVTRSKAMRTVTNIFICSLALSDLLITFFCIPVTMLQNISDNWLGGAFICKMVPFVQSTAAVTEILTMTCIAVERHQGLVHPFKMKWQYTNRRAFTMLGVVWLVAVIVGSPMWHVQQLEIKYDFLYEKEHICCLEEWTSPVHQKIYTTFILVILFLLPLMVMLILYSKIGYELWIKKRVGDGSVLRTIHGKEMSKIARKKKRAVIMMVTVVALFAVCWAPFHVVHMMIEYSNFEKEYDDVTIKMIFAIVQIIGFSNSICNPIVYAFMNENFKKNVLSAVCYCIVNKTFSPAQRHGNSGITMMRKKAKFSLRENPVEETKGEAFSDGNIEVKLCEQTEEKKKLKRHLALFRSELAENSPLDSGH
Put plainly: TGFα shedding assay; Exp. level WT (1:20). In kind it is cell-based. The protocol: For the TGFα shedding assay and the flow cytometry analysis, we used human full-length QRFPR-encoding plasmids. Specifically, GPR103 was N-terminally modified with an HA signal sequence followed by a FLAG epitope and then a flexible linker ([…]; the FLAG epitope is underlined) and inserted into the pCAGGS vector. Plasmid encoding GPR103 mutants were generated using Quickchange Site-Directed Mutagensis kit (Agilent).
The TGFα shedding assay was performed as described previously with minor modifications. Plasmid transfection was performed in a 6-well plate with a mixture of 500 ng (per well in a 6-well plate) AP-TGFα-encoding plasmid and 200 ng GPR103-encoding plasmid. After 1-day culture, the transfected cells were harvested by trypsinization, pelleted by centrifugation at 190 × g for 5 min, and washed once with 5 mM HEPES (pH 7.4)-containing Hank’s Balanced Salt Solution (HBSS). After centrifugation, the cells were resuspended in 8 mL of the HEPES-containing HBSS. The cell suspension was seeded in a 96-well culture plate (cell plate) at a volume of 90 μL (per well hereafter) and incubated in a 37 °C incubator with 5% CO2 for 30 min. […] After spinning the cell plates at 190 × g for 2 min, 80 μL of conditioned media was transferred to an empty 96-well plate (conditioned media (CM) plate). Then, 80 μL of AP reaction solution (10 mM p-nitrophenylphosphate (p-NPP), 120 mM Tris-HCl (pH 9.5), 40 mM NaCl, and 10 mM MgCl2) was dispensed into the cell plates and the CM plates. Absorbance at 405 nm of the plates was measured using a microplate reader (SpectraMax 340 PC384, Molecular Devices) before and after 1-h incubation at room temperature. Ligand-induced AP-TGFα release was calculated by subtracting spontaneous AP-TGFα release signal from ligand-induced AP-TGFα release signal. The AP-TGFα release signals were fitted to a four-parameter sigmoidal concentration–response curve, using the Prism 10 software (GraphPad Prism). For each replicate experiment, the pEC50 parameter (negative logarithmic values of EC50 values) of the individual GPR103 mutants were normalized to that of the wild-type GPR103 performed in parallel, and resulting ∆pEC50 values were used to denote ligand response activity of the mutants. […]
Exp. le vel: WT (1:5 0)Exp. le vel: WT (1:5 0)Exp. le vel: WT (1:5 0)Exp. le vel: WT (1:2 0)Exp. le vel: WT (1:2 0)Exp. le vel: WT (1:1 0) […]
L1 4N - t e r mA F2 5N - t e r mA I 2 6N - t e r mA Y 2 9N - t e r mA C 9 82 .5 7A T10 22 .6 1A Exp . l eve l: WT (1 :5)Exp . l evel : >WT (1 :1)Exp. le vel: WT (1:2 0)Exp. le vel: WT (1:2 0)Exp. le vel: WT (1:5 0)Exp . l eve l: WT (1 :1) […]
Exp. le vel: WT (1:1 0)Exp. le vel: WT (1:2 0) C 1 1 83 .2 5AExp. le vel: WT (1:5 0)Exp. le vel: WT (1:5 0)Exp. le vel: WT (1:2 0)Exp . l eve l: WT (1 :5) […]
Exp. le vel: WT (1:5 0)Exp. le vel: WT (1:1 0)Exp. le vel: WT (1:5 0) E203ECL2AExp . l evel : >WT (1 :1)Exp. le vel: WT (1:5 0)Exp. le vel: WT (1:5 0) […]
Exp . l eve l: WT (1 :1) F28Exp. le vel: WT (1:5 0) C 2 8 56 .4 7AExp. le vel: WT (1:2 0) WExp. le vel: WT (1:2 0) F28Exp. le vel: WT (1:5 0)Exp . l evel : >WT (1 :1) […]
Exp. le vel: WT (1:5 0)Exp. le vel: WT (1:5 0) C 3 2 77 .4 8AExp . l eve l: WT (1 :5)Exp . l evel : >WT (1 :1)Exp . l evel : >WT (1 :1) […]
Suppl eme nt ary Figure 1 | Mutational analysis of GPR103. […]
mutants. Data are presented as mean values ± SEM, normally n=3-5; dots), each performed in triplicate. b-d Cell-surface expression (b) and QRFP26-in-duced activation of GPR103 (c, d) were analyzed by the flow cytometry and the TGFα shedding assay, respectively. From the concentration–response curves (a), Emax (c) and ΔpEC50 (d) values relative to the wild type were calculated. Colors in the mutant bars indicate an expression level matching to that of titrated wild type. Statistical analyses were performed using the ordinary one-way ANOVA followed by Dunnett tests with the expression-matched […]

As a reminder, the EC50 is the concentration giving half of the maximal effect. Regarding TSGPLGNLAEELNGYSRKKGGFSFRF-NH2 [QRFP26], the Emax amounted to 92.74 % WT (Exp. #1); 87.58 % WT (Exp. #2); 97.49 % WT (Exp. #3); 92.6% (mean, read-out: Emax); 96.2 ± 2.3% (n = 3, read-out: Emax). Where the note is “n = 3”, this substance showed an EC50 of 135 nM.
